Experimental data published in PMC9271180 (Proceedings of the National Academy of Sciences of the …, 2022).

Tests used:
HrtBA = settings: 2 mM ATP; lipid nanodiscs; 37 °C; activation of ATPase; site in HrtB dimer
[1] = target: HrtB permease subunit of the heme efflux pump HrtBA from Corynebacterium diphtheriae (Corynebacterium diphtheriae NCTC13129); experiment: crystal structure

EC50 (HrtBA)	Molecule	stoichiometry N [1]
900 nM	C=CC1=C(C)C2=Cc3c(C=C)c(C)c4[n]3[Fe+][n]3c(c(C)c(CCC(=O)O)c3=CC3=NC(=C4)C(C)=C3CCC(=O)O)=CC1=N2 [heme]	–
–	HrtB permease subunit of the heme efflux pump HrtBA from Corynebacterium diphtheriae (natural protein)	2
